{
  "source": "patent US9788539B2",
  "about": "“Platelet protection solution having beta-galactosidase and sialidase inhibitors” (Velico Medical, Inc., priority 2011, dated 2017)",
  "key": {"[1]": {"tested_on": "mouse platelets", "assay": "Sialidase-induced β-galactose exposure on platelets, lectin binding by flow cytometry", "format": "cell-based", "settings": "mouse platelets, 5 mU α2-3,6,8,9-sialidase"}, "[2]": {"tested_on": "mouse platelets", "assay": "Mouse platelets stored in 30% plasma and 70% INTERSOL solution at RT for 48 h, flow cytometry", "format": "cell-based", "procedure": "The supernatant, containing platelet rich plasma, buffy coat, and some RBC, was removed and centrifuged at 300×g for 6 min to obtain platelet rich plasma (PRP). […] About 70% of the supernatant (105 μL) was removed from each tube, and replaced with equal volume of […]® solution. […] The volumes in tubes lacking one or both additives were evened out with PBS. The platelet suspensions were stored at RT for 48 h on a shaker and analyzed by flow cytometry."}, "[3]": {"tested_on": "Serratia marcescens strain (ATCC #43862)", "assay": "Biofilm formation of S. marcescens, crystal violet", "format": "cell-based", "settings": "1 mM DANA, 48 h, crystal violet A595 nm", "procedure": "(§1) To prepare the seed culture, the cryostock of Serratia marcescens was inoculated into 3 mL of brain-heart infusion broth with a cotton swab and incubated at 37° C. with agitation at 250 rpm for 6 h. The cell density was determined at 600 nm on a dual wavelength spectrometer and diluted to 0.5 McFarland Standard (1.5×10^8 cells/mL) with sterile PBS. Ten μL of the diluted culture was inoculated into 140 μL of 30% plasma in PAS, 30% PC by volume in PAS or 100% plasma, supplemented with or without 1 mM DANA, in the wells of 96-well PVC plates (Corning Biosciences). For each media, six replicates were performed. Ten μL of PBS was inoculated into the control wells. The microtiter plates were then sealed with sterile porous film (VWR) and placed on a platform shaker. The cultures were incubated for 48 h with gentle shaking (˜100 rpm). The cultures were gently mixed and transferred to a polystyrene plate for the determination of planktonic cell density at OD 595 nm. The wells on the original microtiter plates were washed with 3×200 μL of PBS, air dried, stained for 15 min with an aqueous solution of 0.1% (wt/vol) crystal violet, rinsed with water, and air dried for 1 hr. The crystal violet retained by the biofilm was eluted with 200 μL of dimethyl sulfoxide (DMSO) or 30% acetic acid, and read at 595 nm."}, "[4]": {"tested_on": "mouse platelets", "assay": "Sialidase (neuraminidase)-induced loss of platelet surface receptors, flow cytometry and immunoblot", "format": "cell-based", "settings": "mouse platelets, flow cytometry and Western blot"}, "[5]": {"tested_on": "human platelets", "assay": "Human platelets stored in plasma at RT, P-selectin surface expression (CD62P-FITC)", "format": "cell-based", "settings": "stored in plasma with DANA"}, "[6]": {"tested_on": "human platelets", "assay": "Human platelets stored in 30% plasma and 70% PASa at RT, flow cytometry and pH", "format": "cell-based", "settings": "7 days at RT", "procedure": "Human platelets were obtained as described in Example 13. The platelet pellet was resuspended in PPP, ⅕ volumes of original PRP, and aliquoted into wells of a 96-well microtiter plate (60 μL per well). PAS (designated as PASa), containing 7.15 mM Na2HPO4, 2.24 mM NaH2PO4, 10 mM sodium citrate, 30 mM sodium acetate, 79.2 mM NaCl, 5.0 mM KCl, and 1.5 mM MgCl2, was added to corresponding wells at 140 μL per well, DANA was added to 0, 0.1, and 0.5 mM from 10 or 100 mM stock in PBS to proper wells. The sample volumes in the wells were evened out with PBS. The plate was then covered with a gas-permeable film and placed on a shaker. Platelet size and density were measured by forward (FSC) and side scatter (SSC) on a FACSCalibur flow cytometer (BD) at Day 7, and pH was checked at Day 9."}, "[7]": {"tested_on": "Serratia marcescens strain (ATCC #43862)", "assay": "Planktonic growth of S. marcescens in 96-well PVC plate", "format": "cell-based", "settings": "1 mM DANA, 48 h, 30% plasma in PAS, 30% PC in PAS or 100% plasma", "procedure": "as §1, with “Serratia marcescens strain (ATCC #43862) was purchased from American Type Culture Collection (Manassas, Va.). Cells were grown in brain-heart infusion broth (ATCC media 3) at 37° C. and 250 rpm. Frozen stocks were prepared from overnight culture and stored at −80° C. in brain-heart infusion broth containing 15% glycerol by volume. To” for “To”, “The cultures were gently mixed and transferred to a polystyrene plate for the determination of planktonic cell density at OD 595 nm. The wells on the original microtiter plates were washed with 3×200 μL of PBS, air dried, stained for 15 min with an aqueous solution of 0.1% (wt/vol) crystal violet, rinsed with water, and air dried for 1 hr.” left out"}, "[8]": {"tested_on": "platelet GPIbα and GPV receptor surface expression", "assay": "Recombinant TACE-mediated GPIbα and GPV shedding from platelets", "format": "cell-based, mouse", "settings": "GPIbα and GPV; GM6001 100 μM on sialidase-treated platelets"}},
  "note": "“Also recorded” adds a separate entry of the source.",
  "data": [
    {"smiles": "CC(=O)NC1C(O)C=C(C(=O)O)OC1C(O)C(O)CO", "note": "(stereo not shown) [DANA]", "values": [
      {"measurement": "β-galactose exposure induced by sialidase in presence of inhibitor", "setting": "[1]", "value": "completely inhibited; also recorded: inhibits the exposure of β-galactose"},
      {"measurement": "platelet events within the platelet gate", "setting": "[2]; 48 h at RT, DANA 1 mM and/or glucose 10 mM (57% in INTERSOL alone)", "value": "over 80%"},
      {"measurement": "state of platelet population by forward and side scatter", "setting": "[2]; compared with glucose alone", "value": "more resting platelet population"},
      {"measurement": "formation of biofilm", "setting": "[3]", "value": "negatively impacted"},
      {"measurement": "loss (shedding) of platelet GPIbα and GPV induced by sialidase/neuraminidase, in presence of inhibitor", "setting": "[4]", "value": "completely prevented this loss; also recorded: prevented all GPIbα and GPV shedding; also recorded: inhibits the loss of platelet GPIbα"},
      {"measurement": "exposure of P-selectin", "setting": "[5]", "value": "significantly prevented the exposure of P-selectin"},
      {"measurement": "α-granule release", "setting": "[5]", "value": "inhibited α-granule release"},
      {"measurement": "platelet microparticles (G2)", "setting": "[6]; 0.1 mM DANA (41.5% without)", "value": 23.95, "unit": "%"},
      {"measurement": "total acquired events gated as platelets (G1)", "setting": "[6]; 0.1 mM DANA (55% without)", "value": "over 70%"},
      {"measurement": "platelet microparticles (G2)", "setting": "[6]; 0.5 mM DANA", "value": 13.52, "unit": "%"},
      {"measurement": "total acquired events gated as platelets (G1)", "setting": "[6]; 0.5 mM DANA", "value": 81.6, "unit": "%"},
      {"measurement": "bacterial growth (planktonic cell density)", "setting": "[7]", "value": "inhibited the bacterial growth under all conditions"},
      {"measurement": "receptor shedding by rTACE in presence of inhibitor", "setting": "[8]", "value": "completely prevented"}
    ]}
  ]
}
